Laboratory results taken from patent US20260176289A1, “SMALL MOLECULE INHIBITORS OF KRAS PROTEINS” (Merck Sharp & Dohme LLC, priority 2022, published 2026).
Where two headings read alike, the source gives them in different places.

Assays:
AsPC-1 cells = assay: Cellular phospho-ERK assay, AsPC-1 cells (homozygous KRAS-G12D); format: cell-based; details: Homo sapiens, read-out: AsPC1 pERK IC50
Procedure, shortened: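 Cells seeded at 10,000-15,000 per well were incubated overnight, then exposed to compound for 2 hours at 37 °C in a 10-point, 1:3 series topping at 30 μM final. Lysates were assayed by Alpha SureFire Ultra multiplex for p-ERK and total ERK; IC50 came from a 4-parameter logistic fit of their ratio.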

MKN-1 cells = assay: Cellular phospho-ERK assay, MKN-1 cells (amplified wild-type KRAS); format: cell-based; details: Homo sapiens, read-out: MKN1 pERK IC50
Procedure: (§1) Procedure for Cellular Phospho-ERK Assay in KRAS Wild Type and Mutant (G12D, G12V) Cell Lines
(§2) MKN-1 cells (JCRB JCRB0252) containing amplified wild-type KRAS, were cultured in growth medium that contains RPMI 1640-GlutaMAX™-I (ThermoFisher Scientific 61870) containing 10% heat inactivated fetal bovine serum (ThermoFisher Scientific 10091148), 1 mM sodium pyruvate and 10 mM HEPES. PANC08.13 cells (ATCC® CRL-2551™), containing homozygous KRAS-G12D activating mutation, were cultured in growth medium made of RPMI1640-GlutaMAX™-I (ThermoFisher Scientific 61870) containing 15% heat inactivated fetal bovine serum (ThermoFisher Scientific 10091148)). AsPC-1 cells (ATCC® CRL-1682™), containing homozygous KRAS-G12D activating mutation, were cultured in T150 flask in growth medium (RPMI medium 1640-GlutaMAX™-I (ThermoFisher Scientific 61870) containing 10% fetal bovine serum (ThermoFisher Scientific 10091148)). SW620 cells (ATCC® […]), containing homozygous KRAS-G12V activating mutation, were cultured in growth medium that contains RPMI 1640-GlutaMAX™-I (ThermoFisher Scientific 61870) containing 10% heat inactivated fetal bovine serum (ThermoFisher Scientific 10091148).
(§3) Cells for the assay were harvested in growth medium after TrypLE (ThermoFisher scientific 12604021) digestion and were seeded in a 384-well collagen coated cell culture plate (Corning 356702) at a density of 10,000-15,000 cells/20 μL/well, and incubated at 37° C., 5% CO2 overnight. The compound (with 10 mM stock concentration) dose-response titrations were prepared [30 μM final ERK detection assay concentration and 1:3 dilutions, 10-point dose response] and appropriate amounts (270 nL) of test compounds were dispensed in a 384-well intermediate plate using an Echo 550 liquid handler. 30 μL/well of RPMI medium 1640-GlutaMAX™—I was added to the intermediate plate and the contents of the intermediate plate (10 μL/well) were then transferred to the 384-well collagen coated cell culture plate, which was incubated at 37° C., 5% CO2 for 2 hours. After removal of medium from the collagen coated cell culture plate, cells were lysed in lysis buffer from Alpha SureFire® Ultra™ Multiplex p-ERK and total ERK assay kit (PerkinElmer MPSU-PTERK) containing Halt™ Protease and Phosphatase inhibitor cocktail (ThermoFisher Scientific 78446) at room temperature with constant shaking at 300 rpm for 30 minutes. The cell lysates were then transferred to an OptiPlate-384 plate (PerkinElmer 6005620), and the phosphorylation of ERK (p-ERK) and total ERK levels were detected by Alpha SureFire® Ultra™ Multiplex p-EEK kit and total ERK assay kit (PerkinElmer MPSU-PTERK) following the manufacturer's protocol. Assay plates were read on a En Vision Multimode Plate Reader (PerkinElmer), and the ratio of p-ERK vs. total ERK in each well was used as the final readout. Dose response curves were analyzed using a 4-parameter logistic model to calculate IC50 values using Spotfire software.

SW620 cells = assay: Cellular phospho-ERK assay, SW620 cells (homozygous KRAS-G12V); format: cell-based; details: Homo sapiens, read-out: SW620 pERK IC50
Procedure: as §1, §2, §3

KRAS-WT = KRAS-WT (Homo sapiens, UniProt P01116); assay: SOS-catalyzed nucleotide exchange assay (Procedure A, TR-FRET), KRAS-WT; format: biochemical
Chain of KRAS-WT (P01116 with tags, fused parts or gaps isoform P01116-2): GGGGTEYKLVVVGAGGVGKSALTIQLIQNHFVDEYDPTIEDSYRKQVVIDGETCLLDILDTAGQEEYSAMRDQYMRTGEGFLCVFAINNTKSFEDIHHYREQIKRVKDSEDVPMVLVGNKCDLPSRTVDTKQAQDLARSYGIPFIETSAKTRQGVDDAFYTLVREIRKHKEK
Procedure, shortened: (§4)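 Biotinylated RAS (KRAS-G12C carries C51S/C80L/C118S; others WT background) preloaded with Bodipy-GDP plus Tb-streptavidin, preincubated with compound 60 min at RT, then human SOS and 3 mM GTP added. Final RAS/SOS: G12C 3 nM/40 nM, 60 min; WT 1 nM/40 nM, 60 min; G12V 1.25 nM/160 nM, 90 min; NRAS 1.25 nM/40 nM, 60 min. TR-FRET 520/495 ratio normalized to DMSO and saturating inhibitor; 10-point curves fit four-parameter logistic.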

KRAS-G12D = KRAS-G12D (Homo sapiens, UniProt P01116, G12D); assay: SOS-catalyzed nucleotide exchange assay (Procedure A, TR-FRET), KRAS-G12D; format: biochemical
Chain of KRAS-G12D (P01116 with tags, fused parts or gaps isoform P01116-2 G12D): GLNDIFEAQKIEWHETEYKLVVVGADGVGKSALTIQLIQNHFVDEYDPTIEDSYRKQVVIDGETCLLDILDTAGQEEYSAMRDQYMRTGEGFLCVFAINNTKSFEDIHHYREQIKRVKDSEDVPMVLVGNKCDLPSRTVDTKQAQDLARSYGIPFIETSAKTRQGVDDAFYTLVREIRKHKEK
Procedure, shortened: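 Signal ratio (520/495 nm, excitation 340 nm) reports Bodipy-GDP retention on biotinylated RAS after SOS-catalyzed exchange with 3 mM GTP. SOS was 40 nM, except 160 nM for G12V. Room-temperature exchange lasted 60 min (90 min for G12V), following a 60 min compound preincubation.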

KRAS-G12V = KRAS-G12V (Homo sapiens, UniProt P01116, G12V); assay: SOS-catalyzed nucleotide exchange assay (Procedure A, TR-FRET), KRAS-G12V; format: biochemical
Chain of KRAS-G12V (P01116 with tags, fused parts or gaps isoform P01116-2 G12V): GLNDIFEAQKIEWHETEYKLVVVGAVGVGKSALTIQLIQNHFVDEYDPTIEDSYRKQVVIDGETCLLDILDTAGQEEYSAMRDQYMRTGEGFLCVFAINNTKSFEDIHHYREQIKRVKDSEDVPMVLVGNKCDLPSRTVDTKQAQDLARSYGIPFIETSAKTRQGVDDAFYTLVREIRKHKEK
Procedure, shortened: as §4

[1] = amplified wild-type KRAS, 2 hours
[2] = nucleotide exchange, read-out: KRAS WT GNE IC50
[3] = nucleotide exchange, read-out: KRAS G12D GNE IC50
[4] = nucleotide exchange, read-out: KRAS G12V GNE IC50
[5] = ASPC1, 2 h, 2 hours compound incubation
[6] = SW-620, 2 hours compound incubation

Row | Compound | IC50 (AsPC-1 cells; ASPC1, KRAS-G12D, 2 hours) [nM] | IC50 (MKN-1 cells; [1]) [nM] | IC50 (SW620 cells; SW-620, KRAS-G12V, 2 hours) [nM] | IC50 (KRAS-WT; KRAS WT GNE IC50, nucleotide exchange) [nM] | IC50 (KRAS-G12D; KRAS G12D GNE IC50, nucleotide exchange) [nM] | IC50 (KRAS-G12V; KRAS G12V GNE IC50, nucleotide exchange) [nM] | IC50 (AsPC-1 cells; ASPC1, 2 h, KRAS-G12D, 2 hours) [nM] | IC50 (KRAS-WT; [2]) [nM] | IC50 (KRAS-G12D; [3]) [nM] | IC50 (KRAS-G12V; [4]) [nM] | IC50 (AsPC-1 cells; [5]) [nM] | IC50 (MKN-1 cells; 2 hours compound incubation) [nM] | IC50 (SW620 cells; [6]) [nM]
1 | C[C@@]1(O)COCCN(c2nc(OC[C@@]34CCCN3C[C@H](F)C4)nc3[se]c4c(-c5c(C6CC6)c(Cl)cc6[nH]ncc56)nccc4c23)C1 [Ex-289, (6S)-4-(8-(6-chloro-5-cyclopropyl-1H-indazol-4-yl)-2-(((2R,7aS)-2-fluorotetrahydro-1H-pyrrolizin-7a(5H)-yl)methoxy)pyri-do[4′,3′:4,5]seleno-pheno[2,3-d]pyrimidin-4-yl)-6-methyl-1,4-oxazepan-6-ol] | 103 | 81.4 | 64.6 | 22.3 | 6.97 | 26.9 |  |  |  |  |  |  | 
2 | Cc1c(C(F)(F)F)c(-c2nccc3c2sc2nc(OC[C@@]45CCCN4C[C@H](F)C5)nc(N4CCOC[C@@](C)(O)C4)c23)c2cn[nH]c2c1F [Ex-44, (6S)-4-(8-(7-fluoro-6-methyl-5-(trifluoromethyl)-1H-indazol-4-yl)-2-(((2R,7aS)-2-fluorotetrahydro-1H-pyrrolizin-7a(5H)-yl)methoxy)pyrido[4′,3′:4,5]thi-eno[2,3-d]pyrimidin-4-yl)-6-methyl-1,4-oxazepan-6-ol] |  | 373 | 281 |  |  |  | 452 | 281 | 141 | 242 |  |  | 
3 | C=C1CCCc2cc3[nH]ncc3c(-c3nccc4c3sc3nc(OC[C@@]56CCCN5C[C@H](F)C6)nc(N5CCOC[C@@](C)(O)C5)c34)c21 [Ex-115, (6S)-4-(2-(((2R,7aS)-2-fluorotetrahydro-1H-pyrrolizin-7a(5H)-yl)methoxy)-8-(5-methylene-5,6,7,8-tetrahydro-1H-benzo[f]indazol-4-yl)pyrido[4′,3′:4,5]thieno [2,3-d]pyrimidin-4-yl)-6-methyl-1,4-oxazepan-6-ol] |  | 24.6 | 18.9 |  |  |  | 46.6 | 10.8 | 3.98 | 13.2 |  |  | 
4 | CC1(F)CCN(C[C@@]2(COc3nc(N4CCOC[C@@](C)(O)C4)c4c(n3)sc3c(-c5c(C6(F)CC6)c(Cl)cc6[nH]ncc56)nccc34)CC2(F)F)CC1 [Ex-232, (6S)-4-(8-(6-chloro-5-(1-fluorocyclopropyl)-1H-indazol-4-yl)-2-(((R)-2,2-difluoro-1-((4-fluoro-4-methylpiperidin-1-yl)methyl)cyclopropyl)metho-xy)pyrido[4′,3′:4,5]thieno[2,3-d]pyrimidin-4-yl)-6-methyl-1,4-oxazepan-6-ol] |  |  |  |  |  |  |  | 762 | 104 | 197 | 188 | 84.2 | 117
5 | CN1CCC[C@@]2(COc3nc(N4CCOC[C@@](C)(O)C4)c4c(n3)sc3c(-c5c(C6CC6)c(Cl)cc6[nH]ncc56)nccc34)CCC[C@@H]12 [Ex-217, (6S)-4-(8-(6-chloro-5-cyclopropyl-1H-indazol-4-yl)-2-(((4aS,7aR)-1-meth-yloctahydro-4aH-cyclopenta[b]pyridin-4a-yl)meth-oxy)pyrido[4′,3′:4,5]thieno[2,3-d]pyrimi-din-4-yl)-6-methyl-1,4-oxazepan-6-ol] |  |  |  |  |  |  |  | 8.85 | 3.46 | 13.1 | 47.7 | 46.9 | 10.9
6 | C[C@@]1(O)COCCN(c2nc(OC[C@@]34CCCN3C[C@H](F)C4)nc3c(Cl)c4c(-c5c(C6CC6)c(Cl)cc6[nH]ncc56)nccn4c23)C1 (single isomer, unassigned) [Ex-300] |  | 54.6 | 39.8 |  |  |  | 222 | 14.4 | 6.53 | 8.43 |  |  | 
7 | CCc1csc2cc3[nH]ncc3c(-c3nccc4c3sc3nc(OC[C@@]56CCCN5C[C@H](F)C6)nc(N5CCOC[C@@](C)(O)C5)c34)c12 [Ex-168, (6S)-4-(8-(5-ethyl-1H-thieno[3,2-f]indazol-4-yl)-2-(((2R,7aS)-2-fluorotetrahydro-1H-pyrrolizin-7a(5H)-yl)methoxy)pyrido [4′,3′:4,5]thieno[2,3-d]pyrimidin-4-yl)-6-methyl-1,4-oxazepan-6-ol] |  |  |  |  |  |  |  | 7.25 | 3.17 | 5.49 | 31.4 | 25.8 | 13
8 | C[C@@]1(O)COCCN(c2nc(OC[C@@]34CCCN3C[C@H](F)C4)nc3sc4c(-c5cc(O)cc(Cl)c5C5CC5)nccc4c23)C1 [Ex-124, (S)-4-(8-(3-chloro-2-cyclopropyl-5-hydroxyphenyl)-2-(((2R,7aS)-2-fluorotetrahydro-1H-pyrrolizin-7a(5H)-yl)methoxy)pyri-do[4′,3′:4,5]thieno[2,3-d]pyrimidin-4-yl)-6-methyl-1,4-oxazepan-6-ol] |  |  |  |  |  |  | 151 | 39.4 | 11.1 | 24.1 |  |  | 
9 | C[C@@]1(O)COCCN(c2nc(OC[C@]3(CN4CC5(CC5)C4)CC3(F)F)nc3sc4c(-c5c(C6(F)CC6)c(Cl)cc6[nH]ncc56)nccc4c23)C1 [Ex-250, (6S)-4-(2-(((R)-1-((5-azaspiro[2.3]hexan-5-yl)methyl)-2,2-difluorocyclopropyl)methoxy)-8-(6-chloro-5-(1-fluorocyclopropyl)-1H-indazol-4-yl)pyrido[4′,3′:4,5]thieno[2,3-d]pyrimidin-4-yl)-6-methyl-1,4-oxazepan-6-ol] |  |  |  |  |  |  |  | 36.2 | 8.56 | 18.6 | 152 |  | 
10 | C#Cc1c(F)ccc2cc3[nH]ncc3c(-c3nccc4c5c(N6CCOC[C@@](C)(O)C6)nc(OC[C@@]67CCCN6C[C@H](F)C7)nc5n(C)c34)c12 [Ex-25, (6S)-4-(8-(5-ethynyl-6-fluoro-1H-benzo[f]indazol-4-yl)-2-(((2R,7aS)-2-fluorotetrahydro-1H-pyrrolizin-7a(5H)-yl)methoxy)-9-methyl-9H-pyrido[4′,3′:4,5]pyrrolo[2,3-d]pyrimidin-4-yl)-6-methyl-1,4-oxazepan-6-ol] |  |  |  |  |  |  | 1150 | 136 | 61.6 | 89.8 |  |  | 
11 | Cn1c2nc(OC[C@@]34CCCN3C[C@H](F)C4)nc(N3CCOC[C@@](C)(O)C3)c2c2ccnc(-c3c(C4CC4)c(Cl)cc4[nH]ncc34)c21 (single isomer, unassigned) [Ex-2] |  |  |  |  |  |  | 426 | 64 | 35.4 | 36.8 |  |  | 
